# System: B-16 melanoma cells
# Experiment: Cell growth ratio in the quantification test (cell count)
# Format: cell-based
# Settings: 6.25 ppm, two days, relative to control
# Procedure: (§1) In plastic culture flasks (25 cm^2), B-16 melanoma cells were seeded at 5×10^4 per flask, and cultured in DMEM containing 10% serum in the presence of 5% carbon dioxide at a temperature of 37° C. After culturing for three days, each test sample diluted with ethanol was added at a concentration in the medium of 6.25 ppm, and the cells were culture for further two days. After the culturing was finished, the medium was removed, and the cells were rinsed with phosphate buffered solution (hereinafter referred to as PBS). Then, the cells were detached from each flask by using trypsin-containing PBS, and harvested from the cell suspension by centrifugation. To the obtained cells, 2 ml of DMEM was added, and the cells were dispersed by gentle pipetting. Of the DMEM, 100 μl was diluted with DMEM to achieve 1×10^4 to 5×10^5 cells/ml. Then, the number of the cells was counted with Scepter™ 2.0 automated cell counter (Merck Millipore), and the cell growth ratio was determined. The cell growth ratio was determined by the following formula.
# Cell growth ratio (%)=(number of cells of sample/number of cells of control)×100
row,Compound,Cell growth ratio
1,2-isopropyl-5-methylcyclohexanols [Compound 1H],102.1%
2,"OC[C@H]1O[C@@H](Oc2ccc(O)cc2)[C@H](O)[C@@H](O)[C@@H]1O [Arbutin, arbutin, reference compound]",94.1%
3,"CC1CCC(C(C)C)C(OCC(O)CO)C1 (stereo not shown) [Compound 1B, 3-(2-isopropyl-5-methylcyclohexyloxy)propane-1,2-diol]",93.2%
4,"CC1CCC(C(C)C)C(OCCCO)C1 (stereo not shown) [Compound 1C, 3-(2-isopropyl-5-methylcyclohexyloxy)propan-1-ol]",103.1%
5,"CC(O)CC(=O)OC1CC(C)CCC1C(C)C (stereo not shown) [Compound 1D, 2-isopropyl-5-methylcyclohexyl 3-hydroxybutyrate]",104.9%
6,"CC1CCC(C(C)C)C(OCCOCCO)C1 (stereo not shown) [Compound 1E, 2-(2-(2-isopropyl-5-methylcyclohexyloxy)ethoxy)ethanol]",96.4%
7,"CC(=O)CC(=O)OC1CC(C)CCC1C(C)C (stereo not shown) [Compound 1G, 2-isopropyl-5-methylcyclohexyl 3-oxobutyrate]",87.8%

# System: B-16 melanoma cells
# Experiment: Visual Evaluation Test for Melanin Production Inhibition in Pigment Cells
# Format: cell-based
# Parameters: key to Visual evaluation of melanin production inhibition (whiteness of cell sediment): −: The same as the solvent control (black); +: Slightly different from the solvent control (dark gray); ++: Apparently different from the solvent control (light gray); +++: Cells were not colored (white)
# Settings: 3.13 ppm in medium, B-16 melanoma cells, four days
# Procedure: In plastic culture flasks (25 cm^2), B-16 melanoma cells were seeded at 5×10^4 per flask, and cultured in DMEM (Dulbecco's Modified Eagle's Medium) containing 10% serum [Nippon Suisan Kaisha, Ltd, trade name] in the presence of 5% carbon dioxide at a temperature of 37° C. On the next day, each test sample diluted with ethanol was added at concentrations in the medium of 3.13, 6.25, 12.5, 25, and 50 ppm, and the cells were cultured for further four days. After the culturing was finished, the medium was removed, and the cells were rinsed with phosphate buffered solution (hereinafter, referred to as PBS). Then, the cells were detached from each flask by using trypsin-containing PBS, and were harvested from the cell suspension by centrifugation. After the obtained cells were rinsed once with PBS, the whiteness of the sediment was visually observed. Compounds 2A and 2B were used as comparative materials.
# Activity: The activity was evaluated by using the following four grades. −: The same as the solvent control (black) +: Slightly different from the solvent control (dark gray) ++: Apparently different from the solvent control (light gray) +++: Cells were not colored (white)
row,Compound,Visual evaluation of melanin production inhibition (whiteness of cell sediment)
1,2-isopropyl-5-methylcyclohexanols [Compound 1H],+
2,"OC[C@H]1O[C@@H](Oc2ccc(O)cc2)[C@H](O)[C@@H](O)[C@@H]1O [Arbutin, arbutin, reference compound]",+
3,"CC1CCC(C(C)C)C(OCC(O)CO)C1 (stereo not shown) [Compound 1B, 3-(2-isopropyl-5-methylcyclohexyloxy)propane-1,2-diol]",+
4,"CC1CCC(C(C)C)C(OCCCO)C1 (stereo not shown) [Compound 1C, 3-(2-isopropyl-5-methylcyclohexyloxy)propan-1-ol]",−
5,"CC(O)CC(=O)OC1CC(C)CCC1C(C)C (stereo not shown) [Compound 1D, 2-isopropyl-5-methylcyclohexyl 3-hydroxybutyrate]",−
6,"CC1CCC(C(C)C)C(OCCOCCO)C1 (stereo not shown) [Compound 1E, 2-(2-(2-isopropyl-5-methylcyclohexyloxy)ethoxy)ethanol]",−
7,"CC(=O)CC(=O)OC1CC(C)CCC1C(C)C (stereo not shown) [Compound 1G, 2-isopropyl-5-methylcyclohexyl 3-oxobutyrate]",+

# Same assay, conditions: 6.25 ppm in medium, B-16 melanoma cells, four days
row,Compound,Visual evaluation of melanin production inhibition (whiteness of cell sediment)
1,2-isopropyl-5-methylcyclohexanols [Compound 1H],++
2,"CC(C)[C@@H]1CC[C@@H](C)C[C@@H]1O (relative stereo) [Compound 1I, (1S*,2S*,5R*)-2-isopropyl-5-methylcyclohexanol]",+
3,"CC(C)[C@H]1CC[C@@H](C)C[C@@H]1O (relative stereo) [Compound 1J, (1S*,2R*,5R*)-2-isopropyl-5-methylcyclohexanol]",+
4,"CC(C)[C@H]1CC[C@@H](C)C[C@H]1O (relative stereo) [Compound 1K, (1R*,2R*,5R*)-2-isopropyl-5-methylcyclohexanol]",+
5,"OC[C@H]1O[C@@H](Oc2ccc(O)cc2)[C@H](O)[C@@H](O)[C@@H]1O [Arbutin, arbutin, reference compound]",++
6,"C=C(C)[C@@H]1CC[C@@H](C)C[C@H]1O [Compound 1A, (1R,2S,5R)-5-methyl-2-isopropenylcyclohexanol]",−
7,"CC1CCC(C(C)C)C(OCC(O)CO)C1 (stereo not shown) [Compound 1B, 3-(2-isopropyl-5-methylcyclohexyloxy)propane-1,2-diol]",++
8,"CC1CCC(C(C)C)C(OCCCO)C1 (stereo not shown) [Compound 1C, 3-(2-isopropyl-5-methylcyclohexyloxy)propan-1-ol]",++
9,"CC(O)CC(=O)OC1CC(C)CCC1C(C)C (stereo not shown) [Compound 1D, 2-isopropyl-5-methylcyclohexyl 3-hydroxybutyrate]",++
10,"CC1CCC(C(C)C)C(OCCOCCO)C1 (stereo not shown) [Compound 1E, 2-(2-(2-isopropyl-5-methylcyclohexyloxy)ethoxy)ethanol]",+
11,"CC(O)COC1CC(C)CCC1C(C)C (stereo not shown) [Compound 1F, 1-(2-isopropyl-5-methylcyclohexyloxy)propan-2-ol]",++
12,"CC(=O)CC(=O)OC1CC(C)CCC1C(C)C (stereo not shown) [Compound 1G, 2-isopropyl-5-methylcyclohexyl 3-oxobutyrate]",+++
13,"CCNC(=O)C1CC(C)CCC1C(C)C (stereo not shown) [Compound 2A, N-ethyl-5-methyl-2-isopropylcyclohexane carboxamide, reference compound]",−

# Same assay, conditions: 6.25 ppm, comparison with arbutin
row,Compound,Activity compared with arbutin in the visual evaluation test at 6.25 ppm
1,"CC(=O)CC(=O)OC1CC(C)CCC1C(C)C (stereo not shown) [Compound 1G, 2-isopropyl-5-methylcyclohexyl 3-oxobutyrate]",higher activity than arbutin

# Same assay, conditions: 12.5 ppm in medium, B-16 melanoma cells, four days
row,Compound,Visual evaluation of melanin production inhibition (whiteness of cell sediment)
1,2-isopropyl-5-methylcyclohexanols [Compound 1H],+++
2,"CC(C)[C@@H]1CC[C@@H](C)C[C@@H]1O (relative stereo) [Compound 1I, (1S*,2S*,5R*)-2-isopropyl-5-methylcyclohexanol]",+++
3,"CC(C)[C@H]1CC[C@@H](C)C[C@@H]1O (relative stereo) [Compound 1J, (1S*,2R*,5R*)-2-isopropyl-5-methylcyclohexanol]",+++
4,"CC(C)[C@H]1CC[C@@H](C)C[C@H]1O (relative stereo) [Compound 1K, (1R*,2R*,5R*)-2-isopropyl-5-methylcyclohexanol]",+++
5,"OC[C@H]1O[C@@H](Oc2ccc(O)cc2)[C@H](O)[C@@H](O)[C@@H]1O [Arbutin, arbutin, reference compound]",+++
6,"C=C(C)[C@@H]1CC[C@@H](C)C[C@H]1O [Compound 1A, (1R,2S,5R)-5-methyl-2-isopropenylcyclohexanol]",++
7,"CC1CCC(C(C)C)C(OCCCO)C1 (stereo not shown) [Compound 1C, 3-(2-isopropyl-5-methylcyclohexyloxy)propan-1-ol]",+++
8,"CC(O)CC(=O)OC1CC(C)CCC1C(C)C (stereo not shown) [Compound 1D, 2-isopropyl-5-methylcyclohexyl 3-hydroxybutyrate]",+++
9,"CC1CCC(C(C)C)C(OCCOCCO)C1 (stereo not shown) [Compound 1E, 2-(2-(2-isopropyl-5-methylcyclohexyloxy)ethoxy)ethanol]",++
10,"CC(O)COC1CC(C)CCC1C(C)C (stereo not shown) [Compound 1F, 1-(2-isopropyl-5-methylcyclohexyloxy)propan-2-ol]",+++
11,"CC(=O)CC(=O)OC1CC(C)CCC1C(C)C (stereo not shown) [Compound 1G, 2-isopropyl-5-methylcyclohexyl 3-oxobutyrate]",+++
12,"CCNC(=O)C1CC(C)CCC1C(C)C (stereo not shown) [Compound 2A, N-ethyl-5-methyl-2-isopropylcyclohexane carboxamide, reference compound]",+

# Same assay, conditions: 25 ppm in medium, B-16 melanoma cells, four days
row,Compound,Visual evaluation of melanin production inhibition (whiteness of cell sediment)
1,"C=C(C)[C@@H]1CC[C@@H](C)C[C@H]1O [Compound 1A, (1R,2S,5R)-5-methyl-2-isopropenylcyclohexanol]",+++
2,"CCNC(=O)C1CC(C)CCC1C(C)C (stereo not shown) [Compound 2A, N-ethyl-5-methyl-2-isopropylcyclohexane carboxamide, reference compound]",++
3,"CNC(=O)C(C)(C(C)C)C(C)C [Compound 2B, N,2,3-trimethyl-2-isopropylbutanamide, reference compound]",−

# Same assay, conditions: 50 ppm in medium, B-16 melanoma cells, four days
row,Compound,Visual evaluation of melanin production inhibition (whiteness of cell sediment)
1,"CCNC(=O)C1CC(C)CCC1C(C)C (stereo not shown) [Compound 2A, N-ethyl-5-methyl-2-isopropylcyclohexane carboxamide, reference compound]",+++
2,"CNC(=O)C(C)(C(C)C)C(C)C [Compound 2B, N,2,3-trimethyl-2-isopropylbutanamide, reference compound]",+

# Same assay, conditions: comparison with arbutin
row,Compound,Activity compared with arbutin in the visual evaluation test
1,2-isopropyl-5-methylcyclohexanols [Compound 1H],almost the same activity as that of arbutin
2,"CC1CCC(C(C)C)C(OCCCO)C1 (stereo not shown) [Compound 1C, 3-(2-isopropyl-5-methylcyclohexyloxy)propan-1-ol]",almost the same activity as that of arbutin
3,"CC(O)CC(=O)OC1CC(C)CCC1C(C)C (stereo not shown) [Compound 1D, 2-isopropyl-5-methylcyclohexyl 3-hydroxybutyrate]",almost the same activity as that of arbutin
4,"CC(O)COC1CC(C)CCC1C(C)C (stereo not shown) [Compound 1F, 1-(2-isopropyl-5-methylcyclohexyloxy)propan-2-ol]",almost the same activity as that of arbutin

# System: B-16 melanoma cells
# Experiment: Quantification Test for Melanin Production Inhibition in Pigment Cells (melanin inhibition ratio)
# Format: cell-based
# Settings: 6.25 ppm, B-16 melanoma cells, two days
# Procedure: as §1
# The rest of the cell suspension was again centrifuged, and the medium was removed. After that, an operation in which the cells were rinsed with 1 ml of very cool 5% trichloroacetic acid and centrifuged was repeated three times, and further the cells were rinsed twice by adding 1 ml of ethanol/ethyl ether (3:1 volume ratio) and centrifuged. Finally, the cells were rinsed once with 1 ml of ethyl ether, centrifuged, and air-dried over night. To the dried cells, 2 N NaOH was added, and melanin in the cells was dissolved in a water bath of 60° C. After cooling, the absorbance at 415 nm was measured by using a microplate reader (BIO-RAD MICROPLATE READER Benchmark-). From the measured value, the amount of melanin per 10^6 cells was calculated by conversion using a standard curve obtained by using synthesized melanin (NACALAI TESQUE, INC.), and the melanin inhibition ratio was determined. The melanin inhibition ratio was determined by the following formula:
# Melanin inhibition ratio (%)=[(amount of melanin of control−amount of melanin of sample)/(amount of melanin of control)]×100
row,Compound,Melanin production inhibition ratio
1,2-isopropyl-5-methylcyclohexanols [Compound 1H],49.0%
2,"OC[C@H]1O[C@@H](Oc2ccc(O)cc2)[C@H](O)[C@@H](O)[C@@H]1O [Arbutin, arbutin, reference compound]",35.5%
3,"CC1CCC(C(C)C)C(OCC(O)CO)C1 (stereo not shown) [Compound 1B, 3-(2-isopropyl-5-methylcyclohexyloxy)propane-1,2-diol]",37.0%
4,"CC1CCC(C(C)C)C(OCCCO)C1 (stereo not shown) [Compound 1C, 3-(2-isopropyl-5-methylcyclohexyloxy)propan-1-ol]",52.0%
5,"CC(O)CC(=O)OC1CC(C)CCC1C(C)C (stereo not shown) [Compound 1D, 2-isopropyl-5-methylcyclohexyl 3-hydroxybutyrate]",52.8%
6,"CC1CCC(C(C)C)C(OCCOCCO)C1 (stereo not shown) [Compound 1E, 2-(2-(2-isopropyl-5-methylcyclohexyloxy)ethoxy)ethanol]",23.3%
7,"CC(=O)CC(=O)OC1CC(C)CCC1C(C)C (stereo not shown) [Compound 1G, 2-isopropyl-5-methylcyclohexyl 3-oxobutyrate]",41.5%

# Same assay, conditions: 6.25 ppm, comparison with arbutin
row,Compound,Melanin production-inhibitory activity compared with arbutin in the quantification test
1,2-isopropyl-5-methylcyclohexanols [Compound 1H],higher melanin production-inhibitory activity than arbutin
2,"CC1CCC(C(C)C)C(OCC(O)CO)C1 (stereo not shown) [Compound 1B, 3-(2-isopropyl-5-methylcyclohexyloxy)propane-1,2-diol]",higher melanin production-inhibitory activity than arbutin
3,"CC1CCC(C(C)C)C(OCCCO)C1 (stereo not shown) [Compound 1C, 3-(2-isopropyl-5-methylcyclohexyloxy)propan-1-ol]",higher melanin production-inhibitory activity than arbutin
4,"CC(O)CC(=O)OC1CC(C)CCC1C(C)C (stereo not shown) [Compound 1D, 2-isopropyl-5-methylcyclohexyl 3-hydroxybutyrate]",higher melanin production-inhibitory activity than arbutin
5,"CC(=O)CC(=O)OC1CC(C)CCC1C(C)C (stereo not shown) [Compound 1G, 2-isopropyl-5-methylcyclohexyl 3-oxobutyrate]",higher melanin production-inhibitory activity than arbutin
